{"source": "patent US4916126A", "about": "“Diacyl derivatives of 4-(trialkylbenzyl)-piperazinyl compounds” (Ciba-Geigy Corporation, priority 1988, dated 1990)", "key": {"[1]": {"test_system": "serum lipoproteins (VLDL, LDL and HDL)", "test": "reduction of serum lipoproteins (VLDL, LDL and HDL) in genetically hypercholesterolaemic rats (procedure A) and normolipaemic rats (procedure B)", "type": "in vivo", "conditions": "repeated administration of 30 mg/kg daily, oral", "experimental": "In contrast, the diacyl compounds of the present invention have, if at all, only a marginal antibiotic action.\nAlbino rats having a body weight of from 180 to 240 g and having free access to normal rat food and drinking water are used, Sprague Dawley derivatives of the strain Tif:RAI in procedure A and animals of the Wistar strain IVa-WI in procedure B. The test compound is administered orally in a polyethylene glycol solution (average molecular weight 400) to groups of from 8 to 10 rats, in procedure A once daily at 8 a.m. for three consecutive days and twice, at 8 a.m. and 4 p.m., on the fourth day, and in the case of procedure B, daily for 5 consecutive days. In experiment A the animals are sacrificed 16 hours, and in experiment B two hours, after the final administration by bleeding from the neck under anaesthesia with ether. The animals are given no food during the 16 hours before they are sacrificed. […] The serum lipoproteins are separated using an unltracentrifuge by means of 24-hour centrifugation at 78,000 g, 78,000 g and 109,000 g in salt solutions having densities of 1.006, 1.040 and 1.21, respectively, and are analysed enzymatically for their content of cholesterol and triglycerides using the test systems supplied, for example, by Miles (Lausanne, Switzerland) and Bohringer (Mannheim, Federal Republic of Germany)."}, "[2]": {"test_system": "Mycobacterium tuberculosis TB H37 Rv and Staphylococcus aureus", "test": "antibiotic action, in vitro and in vivo tests as a whole"}, "Staphylococcus aureus [3]": {"test_system": "Staphylococcus aureus", "test": "in vivo antibiotic action in mice infected with Staphylococcus aureus", "conditions": "single dose of 200 mg/kg"}, "[4]": {"molecular_target": "RNA polymerase of Escherichia coli (Escherichia coli, UniProt P0A8V2)", "sequence (P0A8V2 whole entry)": "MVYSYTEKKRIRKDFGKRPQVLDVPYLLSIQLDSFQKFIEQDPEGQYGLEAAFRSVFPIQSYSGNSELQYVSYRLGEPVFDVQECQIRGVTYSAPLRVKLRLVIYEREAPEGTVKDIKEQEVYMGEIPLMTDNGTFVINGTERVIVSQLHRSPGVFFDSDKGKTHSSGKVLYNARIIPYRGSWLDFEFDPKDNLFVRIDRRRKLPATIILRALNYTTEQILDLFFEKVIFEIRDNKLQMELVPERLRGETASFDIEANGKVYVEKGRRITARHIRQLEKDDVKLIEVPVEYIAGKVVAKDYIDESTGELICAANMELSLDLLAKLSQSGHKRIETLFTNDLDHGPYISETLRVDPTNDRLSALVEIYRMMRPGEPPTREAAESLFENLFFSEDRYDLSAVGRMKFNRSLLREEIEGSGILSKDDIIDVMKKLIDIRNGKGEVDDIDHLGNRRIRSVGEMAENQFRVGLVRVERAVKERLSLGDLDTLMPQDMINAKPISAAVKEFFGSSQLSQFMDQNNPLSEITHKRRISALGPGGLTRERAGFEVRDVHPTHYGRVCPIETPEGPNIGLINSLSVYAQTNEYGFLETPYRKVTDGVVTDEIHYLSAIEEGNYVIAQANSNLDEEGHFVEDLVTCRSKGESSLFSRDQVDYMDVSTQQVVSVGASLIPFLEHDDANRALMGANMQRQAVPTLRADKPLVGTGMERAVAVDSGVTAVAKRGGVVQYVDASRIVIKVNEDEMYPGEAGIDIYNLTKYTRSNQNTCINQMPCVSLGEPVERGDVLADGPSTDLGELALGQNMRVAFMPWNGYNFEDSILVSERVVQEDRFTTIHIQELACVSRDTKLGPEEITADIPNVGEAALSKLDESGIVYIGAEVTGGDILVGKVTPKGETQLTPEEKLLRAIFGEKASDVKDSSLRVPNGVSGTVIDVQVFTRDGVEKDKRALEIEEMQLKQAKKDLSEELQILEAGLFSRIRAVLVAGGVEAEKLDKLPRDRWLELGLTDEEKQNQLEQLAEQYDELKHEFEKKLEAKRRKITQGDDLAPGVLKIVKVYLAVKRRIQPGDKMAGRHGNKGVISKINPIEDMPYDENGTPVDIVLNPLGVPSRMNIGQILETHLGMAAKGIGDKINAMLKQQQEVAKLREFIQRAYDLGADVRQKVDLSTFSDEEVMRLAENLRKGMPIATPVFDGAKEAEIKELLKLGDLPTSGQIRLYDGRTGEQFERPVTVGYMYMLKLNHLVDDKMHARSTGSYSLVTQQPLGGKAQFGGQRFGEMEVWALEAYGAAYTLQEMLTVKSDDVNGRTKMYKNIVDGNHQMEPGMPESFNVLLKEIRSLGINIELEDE", "sequence (P0A8T7 whole entry partner)": "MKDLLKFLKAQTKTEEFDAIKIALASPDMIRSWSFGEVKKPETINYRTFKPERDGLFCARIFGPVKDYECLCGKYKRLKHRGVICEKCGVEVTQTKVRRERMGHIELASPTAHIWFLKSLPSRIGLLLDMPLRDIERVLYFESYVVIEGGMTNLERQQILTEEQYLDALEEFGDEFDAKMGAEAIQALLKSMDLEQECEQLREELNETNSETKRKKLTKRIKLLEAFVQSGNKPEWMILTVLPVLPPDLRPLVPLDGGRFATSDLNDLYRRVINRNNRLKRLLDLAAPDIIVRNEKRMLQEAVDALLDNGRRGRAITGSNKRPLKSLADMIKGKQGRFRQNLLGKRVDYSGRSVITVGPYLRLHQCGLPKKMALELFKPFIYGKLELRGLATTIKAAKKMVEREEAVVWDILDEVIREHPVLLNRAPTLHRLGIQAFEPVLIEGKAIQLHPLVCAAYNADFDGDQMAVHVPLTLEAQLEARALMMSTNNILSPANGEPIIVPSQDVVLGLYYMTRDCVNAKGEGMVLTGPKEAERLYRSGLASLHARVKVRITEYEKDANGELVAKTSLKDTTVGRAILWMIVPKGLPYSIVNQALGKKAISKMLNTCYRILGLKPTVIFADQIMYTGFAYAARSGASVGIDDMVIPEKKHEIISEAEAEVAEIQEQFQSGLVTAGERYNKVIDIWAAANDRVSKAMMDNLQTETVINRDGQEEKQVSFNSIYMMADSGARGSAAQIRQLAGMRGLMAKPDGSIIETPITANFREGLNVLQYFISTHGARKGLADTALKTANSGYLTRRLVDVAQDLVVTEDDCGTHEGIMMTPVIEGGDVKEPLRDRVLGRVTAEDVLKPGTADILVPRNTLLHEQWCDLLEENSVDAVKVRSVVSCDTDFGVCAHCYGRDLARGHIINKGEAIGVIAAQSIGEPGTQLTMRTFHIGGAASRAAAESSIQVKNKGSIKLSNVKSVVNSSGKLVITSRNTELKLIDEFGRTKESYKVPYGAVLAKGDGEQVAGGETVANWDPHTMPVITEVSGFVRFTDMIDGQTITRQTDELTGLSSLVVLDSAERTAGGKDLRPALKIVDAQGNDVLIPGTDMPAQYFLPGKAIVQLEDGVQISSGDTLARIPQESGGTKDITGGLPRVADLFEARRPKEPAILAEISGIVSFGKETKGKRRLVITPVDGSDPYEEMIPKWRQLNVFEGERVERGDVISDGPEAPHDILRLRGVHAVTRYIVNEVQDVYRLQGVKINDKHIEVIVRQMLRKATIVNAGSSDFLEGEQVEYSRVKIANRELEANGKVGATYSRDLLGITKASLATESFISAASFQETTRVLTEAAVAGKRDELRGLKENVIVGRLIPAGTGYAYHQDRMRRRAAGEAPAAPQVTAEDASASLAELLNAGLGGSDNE", "sequence (P0A7Z4 whole entry partner)": "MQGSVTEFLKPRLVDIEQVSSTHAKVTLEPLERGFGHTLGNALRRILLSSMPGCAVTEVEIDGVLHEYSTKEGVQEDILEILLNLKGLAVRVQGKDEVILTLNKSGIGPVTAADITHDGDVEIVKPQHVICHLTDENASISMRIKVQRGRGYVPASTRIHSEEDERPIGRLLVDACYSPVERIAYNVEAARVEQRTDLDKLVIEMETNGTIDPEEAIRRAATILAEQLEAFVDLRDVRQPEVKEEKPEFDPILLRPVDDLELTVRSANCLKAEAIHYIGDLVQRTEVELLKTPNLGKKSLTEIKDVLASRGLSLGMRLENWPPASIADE", "sequence (P0A800 2-91 partner limits assumed)": "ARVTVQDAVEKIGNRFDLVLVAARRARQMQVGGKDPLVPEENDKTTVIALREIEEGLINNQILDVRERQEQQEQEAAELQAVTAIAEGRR", "test": "inhibition of the RNA polymerase of Escherichia coli in vitro", "type": "biochemical", "conditions": "not achieved even with 100 μg/ml", "source_text": "The antibiotic action is ascertained, for example, on the one hand in vitro by determining the mean effective concentration EC50 for the inhibition of the RNA polymerase of Escherichia coli and by determining the minimum inhibitory concentration MIC in a conventional plate test, and on the other hand in vivo, using infected mice and rats, by determining the ED50 (effective dose that ensures the survival of 50% of the experimental animals). There are used as micro-organisms for the present purpose especially Mycobacterium tuberculosis TB H37 Rv and Staphylococcus aureus. In the case of compounds having a lipid-reducing indication, an antibiotic activity is regarded as disadvantageous since it can result in the formation of strains of micro-organisms that are resistant to antibiotics, especially when the compounds are administered over a prolonged period."}, "Staphylococcus aureus [5]": {"test_system": "Staphylococcus aureus", "test": "minimum inhibitory concentration in a conventional plate test", "type": "cell-based", "conditions": "read-out: MIC for various pathogenic strains of Staphylococcus aureus"}}}
{"molecule": "COC1C=COC2(C)Oc3c(C)c(OC(=O)C(C)(C)C)c4c(c3C2=O)C(=O)C(N2CCN(Cc3c(C)cc(C)cc3C)CC2)=C(C4=O)N(C(=O)C(C)(C)C)C(=O)C(C)=CC=CC(C)C(O)C(C)C(O)C(C)C(OC(C)=O)C1C", "note": "(stereo not drawn) [8-O,N-dipivaloyl-3-[4-(2,4,6-trimethylbenzyl)-1-piperazinyl]-rifamycin S]", "values": [{"measurement": "reduction in the \"LDL fraction\"", "setting": "[1]", "result": "50-70%"}, {"measurement": "antibiotic activity", "setting": "[2]; overall statement", "result": "practically no antibiotic activity"}, {"measurement": "EC50 and MIC values relative to concentrations normally necessary for a corresponding effect", "setting": "[2]; refers to RNA polymerase EC50 and Staphylococcus aureus MIC", "result": "approximately 1000 times"}, {"measurement": "antibiotic activity in vivo", "setting": "Staphylococcus aureus [3]", "result": "antibiotically inactive"}, {"measurement": "EC50", "setting": "[4]", "result": "> 92.6", "unit": "µM"}, {"measurement": "MIC", "setting": "Staphylococcus aureus [5]", "result": "~64", "unit": "µg/mL"}]}
